Measurements: US4550179A, “N-(1-Allyl-2-pyrrolidinyl-methyl) 2-methoxy-4-amino-5-methylsulfamoyl benzamide” (Societe d'Etudes Scientifiques et Industrielles de l'Ile-de …, priority 1980, dated 1985)

Columns and labels:
Format in all cases: in vivo
[1] = tested on: arterial pressure; test: arterial pressure in dog anaesthetised with chloralose
From the text: The effects of the benzamide on the cardiovascular system were studied in a dog anaesthetised with chloralose, with the following results:
Variations in arterial pressure
(mg/kg/I.V.) relative to initial pressure

[2] = tested on: adrenalin; test: hypertensive response to adrenalin, anaesthetised dog; conditions: for % reduction relative to control hypertension (R): adrenalin
From the text: The effects of the benzamide on the cardiovascular system were studied in a dog anaesthetised with chloralose, with the following results: […]

[3] = anticonvulsive action (electric shock, pentetrazol, nicotine, auditory stimulus); conditions: nicotine or auditory stimulus

C=CCN1CCCC1CNC(=O)c1cc(S(=O)(=O)NC)c(N)cc1OC (centres unmarked) [Benzamide according to the invention, N-(1-allyl-2-pyrrolidinyl-methyl)2-methoxy-4-amino-5-methylsulfamoyl benzamide]
Variations in arterial pressure relative to initial pressure ([1]; cumulative dose 0.5 mg/kg I.V.): -21%
Variations in arterial pressure relative to initial pressure ([1]; cumulative dose 1 mg/kg I.V.): -32%
Variations in arterial pressure relative to initial pressure ([1]; cumulative dose 2 mg/kg I.V.): -36%
Variations in arterial pressure relative to initial pressure ([1]; cumulative dose 4 mg/kg I.V.): -48%
Variations in arterial pressure relative to initial pressure ([1]; cumulative dose 8 mg/kg I.V.): -54%
Variations in arterial pressure relative to initial pressure ([1]; cumulative dose 16 mg/kg I.V.): -59%
Variations in arterial pressure relative to initial pressure ([1]; cumulative dose 32 mg/kg I.V.): -58%
arterial pressure ([1]; dog anaesthetised with chloralose): drop in arterial pressure proportional to the dose administered
% reduction relative to control hypertension (R) ([2]; cumulative dose 0.5 mg/kg I.V.): 5%
% reduction relative to control hypertension (R) ([2]; cumulative dose 1 mg/kg I.V.): 3%
% reduction relative to control hypertension (R) ([2]; cumulative dose 2 mg/kg I.V.): 4%
% reduction relative to control hypertension (R) ([2]; cumulative dose 4 mg/kg I.V.): 21%
% reduction relative to control hypertension (R) ([2]; cumulative dose 8 mg/kg I.V.): 40%
% reduction relative to control hypertension (R) ([2]; cumulative dose 16 mg/kg I.V.): 68%
% reduction relative to control hypertension (R) ([2]; cumulative dose 32 mg/kg I.V.): 84%
hypertensive responses caused by adrenalin ([2]; anaesthetised dog): reduces the hypertensive responses
anticonvulsive action [3]: no anticonvulsive action
